What is called IC50 is the point on the concentration scale where inhibition reaches its midpoint. Lower therefore signals greater potency in that assay. The term T/C denotes the result in the treated group divided by that in the control group, in per cent.

In one data set the test system is A549. Description: Concentration required to inhibit growth of human tumor A549 (NSCL) cell line. It is filed as functional, cell-based.
A further data set relates to A121. Description: Concentration required to inhibit growth of human tumor A121 (ovarian) cell line. It is filed as functional, cell-based.
For the next data set, the system named is HT-29. Description: Concentration required to inhibit growth of human tumor HT-29 (colon) cell line. It is filed as functional, cell-based.
Data set [1] deals with MCF7. The data set can be described thus: Concentration required to inhibit growth of human tumor MCF-7 (breast) cell line. The format is functional, cell-based.
For data set [2], the system named is MCF7. The data set can be described thus: Concentration required to inhibit growth of human tumor […] (breast) cell line. It is filed as functional, cell-based.
For data set [3], the system named is Mus musculus. Description: Log cell kill = T-C(days)/3.32xTd (Tumor doubling time in days, 1.4 in this assay )on day 7 at 7.7 mg/kg/day in B16 melanoma implanted sc in B6D2F1 mice. The format is ADME, organism-based. Details: route subcutaneous. As to conditions: in vivo.
For data set [4], the system named is Mus musculus. Description: Log cell kill = T-C(days)/3.32xTd (Tumor doubling time in days, 1.4 in this assay )on day 9 at 4.8 mg/kg/day in B16 melanoma implanted sc in B6D2F1 mice. It is filed as ADME, organism-based. The arrangement: route subcutaneous. As to conditions: in vivo.
Data set [5] concerns Mus musculus. The data set can be described thus: Tumor growth inhibition of B16 melanoma implanted sc in B6D2F1 mice when 0.4 mL/mouse administered i.v. on day 7 at 7.7 mg/kg/day. The format is functional. As to conditions: route intravenous.
For data set [6], the system named is Mus musculus. The data set can be described thus: Tumor growth inhibition of B16 melanoma implanted sc in B6D2F1 mice when 0.4 mL/mouse administered i.v. on day 9 at 4.8 mg/kg/day. The format is functional. As to conditions: route intravenous.
The test system of data set [7] is Mus musculus. The data set can be described thus: Tumor growth delay of B16 melanoma implanted sc in B6D2F1 mice when 0.4 mL/mouse administered i.v. on day 7 at 7.7 mg/kg/day. The format is functional. As to conditions: route intravenous.
Data set [8] relates to Mus musculus. Description: Tumor growth delay of B16 melanoma implanted sc in B6D2F1 mice when 0.4 mL/mouse administered i.v. on day 9 at 4.8 mg/kg/day. The format is functional. As to conditions: route intravenous.
The test system of data set [9] is Mus musculus. Description: Tumor growth delay of B16 melanoma implanted sc in B6D2F1 mice when 0.4 mL/mouse administered i.v. on day 5 at 12.4 mg/kg/day. As to conditions: route intravenous. It is filed as functional.
Data set [10] deals with Mus musculus. The data set can be described thus: Tumor growth inhibition of B16 melanoma implanted sc in B6D2F1 mice when 0.4 mL/mouse administered i.v. on day 5 at 12.4 mg/kg/day. The format is functional. As to conditions: route intravenous.
In data set [11] the test system is Mus musculus. The data set can be described thus: Log cell kill = T-C(days)/3.32xTd (Tumor doubling time in days, 1.4 in this assay ) on day 5 at 12.4 mg/kg/day in B16 melanoma implanted sc in B6D2F1 mice. The format is ADME, organism-based. The arrangement: route subcutaneous. As to conditions: in vivo.
The subject of data set [12] is A2780. The data set can be described thus: Cytotoxicity against A2780-C25, oxaliplatin-resistant Ovarian carcinoma cell line. The format is functional, cell-based, Homo sapiens.
Data set [13] deals with A2780. The data set can be described thus: Cytotoxicity against A2780-WT, human ovarian carcinoma cell line. The format is functional, cell-based.
For data set [14], the system named is A2780. Description: Cytotoxicity against A2780-CP3, cisplatin-resistant Ovarian carcinoma cell line. The format is functional, cell-based, Homo sapiens.
Data set [15] has as its system A2780. The data set can be described thus: Cytotoxicity against A2780-DX5, Doxorubicin-resistant Ovarian carcinoma cell line. The format is functional, cell-based, Homo sapiens.
The test system of data set [16] is Mus musculus. Description: Log cell kill = T-C(days)/3.32xTd (Tumor doubling time in days, 1.4 in this assay )on day 7 at 12.4 mg/kg/day in B16 melanoma implanted sc in B6D2F1 mice. The format is ADME, organism-based. The arrangement: route subcutaneous. As to conditions: in vivo.
Data set [17] has as its system Mus musculus. Description: Log cell kill = T-C(days)/3.32xTd (Tumor doubling time in days, 1.4 in this assay )on day 9 at 7.7 mg/kg/day in B16 melanoma implanted sc in B6D2F1 mice. It is filed as ADME, organism-based. Details: route subcutaneous. As to conditions: in vivo.
In data set [18] the test system is Mus musculus. The data set can be described thus: Log cell kill = T-C(days)/3.32xTd (Tumor doubling time in days, 1.4 in this assay ) on day 5 at 20 mg/kg/day in B16 melanoma implanted sc in B6D2F1 mice. As to conditions: in vivo. The arrangement: route subcutaneous. It is filed as ADME, organism-based.
In data set [19] the test system is Mus musculus. The data set can be described thus: Tumor growth inhibition of B16 melanoma implanted sc in B6D2F1 mice when 0.4 mL/mouse administered i.v. on day 9 at 7.7 mg/kg/day. It is filed as functional. As to conditions: route intravenous.
The subject of data set [20] is Mus musculus. The data set can be described thus: Tumor growth delay of B16 melanoma implanted sc in B6D2F1 mice when 0.4 mL/mouse administered i.v. on day 9 at 7.7 mg/kg/day. The format is functional. As to conditions: route intravenous.
Data set [21] relates to Mus musculus. The data set can be described thus: Tumor growth delay of B16 melanoma implanted sc in B6D2F1 mice when 0.4 mL/mouse administered i.v. on day 7 at 12.4 mg/kg/day. The format is functional. As to conditions: route intravenous.
Data set [22] deals with Mus musculus. The data set can be described thus: Tumor growth inhibition of B16 melanoma implanted sc in B6D2F1 mice when 0.4 mL/mouse administered i.v. on day 5 at 20 mg/kg/day. The format is functional. As to conditions: route intravenous.
Data set [23] relates to Mus musculus. The data set can be described thus: Tumor growth inhibition of B16 melanoma implanted sc in B6D2F1 mice when 0.4 mL/mouse administered i.v. on day 7 at 12.4 mg/kg/day. It is filed as functional. As to conditions: route intravenous.

Take `CCC(=O)O[C@H]1C(=O)[C@@]2(C)[C@H]([C@H](OC(=O)c3ccccc3)[C@]3(O)C[C@H](OC(=O)[C@H](O)[C@H](C=C(C)C)NC(=O)OC(C)(C)C)C(C)=C1C3(C)C)[C@]1(OC(C)=O)CO[C@@H]1C[C@@H]2O`: the IC50 in the data set with A549 was 0.29 nM; in the data set with A121, 0.12 nM; in the data set with HT-29, 0.31 nM; with MCF7 [1], 0.18 nM; with MCF7 [2] it was 2.2 nM. For the same molecule, the “Log 10 cell kill” value in the data set on Mus musculus [3] was 2; with Mus musculus [4], 0.6; with Mus musculus [11] it was 2.3. The T/C with Mus musculus [5] is 0%; in the data set on Mus musculus [6], 34%; in the data set on Mus musculus [10], 0%. The results for the T-C in the data set with Mus musculus [7], in the data set on Mus musculus [8] and in the data set with Mus musculus [9] were 9.3 days, 3 days and 10.9 days, respectively.
Regarding CISPLATIN, the IC50 came to 1600 nM in the data set on A2780 [12] (a2780), 450 nM with A2780 [13] (a2780), 9000 nM in the data set with A2780 [14] (a2780) and 280 nM with A2780 [15] (a2780).
Turning to `COc1cccc2c1C(=O)c1c(O)c3c(c(O)c1C2=O)C[C@@](O)(C(=O)CO)C[C@@H]3O[C@H]1C[C@H](N)[C@H](O)[C@H](C)O1` [DOXORUBICIN], the IC50 was 63 nM with A2780 [12] (Homo sapiens, A2780); 5 nM with A2780 [13] (Homo sapiens, A2780); 56 nM with A2780 [14] (Homo sapiens, A2780); 357 nM in the data set with A2780 [15] (Homo sapiens, A2780).
Take `CC(=O)O[C@H]1C(=O)[C@@]2(C)[C@H]([C@H](OC(=O)c3ccccc3)[C@]3(O)C[C@H](OC(=O)[C@H](O)[C@H](C=C(C)C)NC(=O)OC(C)(C)C)C(C)=C1C3(C)C)[C@]1(OC(C)=O)CO[C@@H]1C[C@@H]2O`: the IC50 in the data set with A2780 [12] (Homo sapiens, A2780) amounted to 0.3 nM; with A549, 0.27 nM; in the data set on A2780 [13] (Homo sapiens, A2780) it was 0.4 nM; in the data set on A121 it was 0.46 nM; with HT-29 it was 0.63 nM; with MCF7 [1] it was 0.55 nM. Also, the IC50 in the data set with MCF7 [2] was determined as 12 nM; with A2780 [14] (Homo sapiens, A2780), 0.36 nM; in the data set with A2780 [15] (Homo sapiens, A2780), 5.7 nM.
Regarding `CC(=O)O[C@@]12CO[C@@H]1C[C@H](O)[C@@]1(C)C(=O)[C@H](O)C3=C(C)[C@@H](OC(=O)[C@H](O)[C@@H](NC(=O)OC(C)(C)C)c4ccccc4)C[C@@](O)([C@@H](OC(=O)c4ccccc4)[C@H]21)C3(C)C.O.O.O` [DOCETAXEL], the IC50 turned out to be 1 nM with A2780 [12] (Homo sapiens, A2780); 1.2 nM in the data set on A2780 [13] (Homo sapiens, A2780); 1.4 nM in the data set with A2780 [14] (Homo sapiens, A2780); 122 nM in the data set on A2780 [15] (Homo sapiens, A2780). Besides, the “Log 10 cell kill” value in the data set on Mus musculus [16] is recorded as 1.5; in the data set with Mus musculus [17], 0.9; in the data set with Mus musculus [18], 3.3. Further, the T/C in the data set with Mus musculus [19] came to 8%; in the data set with Mus musculus [22] it was 0%; in the data set with Mus musculus [23], 7%. In addition, the results for the T-C with Mus musculus [20] and in the data set on Mus musculus [21] were 4.3 days and 7.1 days, respectively.
`CC(=O)O[C@@]12CO[C@@H]1C[C@H](O)[C@@]1(C)C(=O)[C@H](OC(=O)N(C)C)C3=C(C)[C@@H](OC(=O)[C@H](O)[C@H](CC(C)C)NC(=O)OC(C)(C)C)C[C@@](O)([C@@H](OC(=O)c4ccccc4)[C@H]21)C3(C)C`: the IC50 stood at 0.5 nM with A549; 0.4 nM in the data set on A121; 0.6 nM in the data set on HT-29; 0.36 nM in the data set on MCF7 [1]; 5.8 nM in the data set with MCF7 [2].
On to `CC(=O)O[C@@]12CO[C@@H]1C[C@H](O)[C@@]1(C)C(=O)[C@H](OC(=O)NC3CCCCC3)C3=C(C)[C@@H](OC(=O)[C@H](O)[C@H](C=C(C)C)NC(=O)OC(C)(C)C)C[C@@](O)([C@@H](OC(=O)c4ccccc4)[C@H]21)C3(C)C`, for which the IC50 in the data set with A549 turned out to be 0.2 nM; with A121, 0.28 nM; in the data set with HT-29, 0.46 nM; with MCF7 [1] it was 0.33 nM; with MCF7 [2], 48 nM.
In the case of `CC(=O)O[C@H]1C(=O)[C@@]2(C)[C@H]([C@H](OC(=O)c3ccccc3)[C@]3(O)C[C@H](OC(=O)[C@H](O)[C@H](CC(C)C)NC(=O)OC(C)(C)C)C(C)=C1C3(C)C)[C@]1(OC(C)=O)CO[C@@H]1C[C@@H]2O`, the IC50 with A549 was determined as 0.98 nM; in the data set with A121, 3.8 nM; in the data set with HT-29 it was 3.2 nM; in the data set with MCF7 [1], 4 nM; in the data set with MCF7 [2] it was 36 nM.

The values are drawn from ChEMBL document CHEMBL1129422, “Syntheses and structure-activity relationships of the second-generation antitumor taxoids: exceptional activity against drug-resistant cancer cells” (J Med Chem, 1996).
